The conditions of this series: for Normal melting temperature: Crystal; for Triple point temperature: Crystal 2, DTA.

± gives the expanded uncertainty stated by the source.

Turning to `O=[N+]([O-])[O-].[K+]` [potassium nitrate], the Normal melting temperature turned out to be 333.6 ± 2 °C and the Triple point temperature came to 405.6 ± 0.5 K.

`O=[N+]([O-])[O-].[Na+]` [sodium nitrate]: the Normal melting temperature was determined as 306.5 ± 2 °C and the Triple point temperature was 545.5 ± 0.5 K.

(Values after the NIST ThermoML archive (doi:10.1016/j.tca.2010.06.003).)
